Biological target: T1, GlmR (Enterococcus faecalis, UniProt A0ACD6TA08)
T1 construct: gene OG1RF_10501
Test: thermal shift assay (SYPRO Orange)
Assay type: binding
Conditions: 10 uM protein, 1 mM ligand

**Q.** How did the thermal shift turn out when `CC(=O)N[C@H]1[C@@H](OP(=O)(O)OP(=O)(O)OC[C@H]2O[C@@H](n3ccc(=O)[nH]c3=O)[C@H](O)[C@@H]2O)O[C@H](CO)[C@@H](O)[C@@H]1O` [UDP-GlcNAc] was run?
**A.** The thermal shift was “When incubated with UDP-GlcNAc, both YvcJ and GlmR exhibited clear thermal shifts”.

From article PMC10986989, “Reciprocal regulation of enterococcal cephalosporin resistance by products of the autoregulated yvcJ-glmR-yvcL operon enhances fitness during cephalosporin exposure” (PLOS Genetics, 2024)
